From PubChem BioAssay AID248 (DTP/NCI, 2004)
Values joined by “and” are separate entries in the source; they are usually repeats but may differ in a detail not shown here. Equal values may be shown once. Inconclusive results and toxic doses are left out. Cut-off read from the data, not from the text of the source: active = T/C of 150% or more; inactive = T/C below 125%.

Tested on: L1210 leukemia ip in BDF1 mice, survival T/C
Assay: NCI In Vivo Anticancer Drug Screen. Data for tumor model L1210 Leukemia (intraperitoneal) in B6D2F1 (BDF1) mice
Details: endpoint: mean survival time, higher = longer survival
Method in brief: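 Value reflects the ratio of survival in compound-treated mice to survival in vehicle-treated controls, with both groups carrying the same transplanted tumor.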

[1] = dose: 100.0 mg/kg/injection, schedule: Q01DX009 (ip), vehicle: saline
[2] = dose: 100.0 mg/kg/injection, schedule: Q04DX003 (ip), vehicle: saline
[3] = dose: 200.0 mg/kg/injection, schedule: Q01DX009 (ip), vehicle: saline
[4] = dose: 200.0 mg/kg/injection, schedule: Q04DX003 (ip), vehicle: saline
[5] = dose: 400.0 mg/kg/injection, schedule: Q01DX009 (ip), vehicle: saline
[6] = dose: 400.0 mg/kg/injection, schedule: Q04DX003 (ip), vehicle: saline
[7] = dose: 12.5 mg/kg/injection, schedule: Q04DX003 (ip), vehicle: saline
[8] = dose: 25.0 mg/kg/injection, schedule: Q04DX003 (ip), vehicle: saline
[9] = dose: 100.0 mg/kg/injection, schedule: Q01DX009 (ip), vehicle: Klucel (hydroxypropylcellulose) (HPC)
[10] = dose: 200.0 mg/kg/injection, schedule: Q01DX009 (ip), vehicle: Klucel (hydroxypropylcellulose) (HPC)
[11] = dose: 400.0 mg/kg/injection, schedule: Q01DX009 (ip), vehicle: Klucel (hydroxypropylcellulose) (HPC)
[12] = dose: 100.0 mg/kg/injection, schedule: Q01DX001 (ip), vehicle: saline
[13] = dose: 200.0 mg/kg/injection, schedule: Q01DX001 (ip), vehicle: saline
[14] = dose: 400.0 mg/kg/injection, schedule: Q01DX001 (ip), vehicle: saline
[15] = dose: 100.0 mg/kg/injection, schedule: Q04DX002 (ip), vehicle: saline with Tween-80
[16] = dose: 100.0 mg/kg/injection, schedule: Q04DX002 (ip), vehicle: Klucel (hydroxypropylcellulose) (HPC)
[17] = dose: 200.0 mg/kg/injection, schedule: Q04DX002 (ip), vehicle: Klucel (hydroxypropylcellulose) (HPC)
[18] = dose: 400.0 mg/kg/injection, schedule: Q04DX002 (ip), vehicle: Klucel (hydroxypropylcellulose) (HPC)

Measured: T/C

COc1cc2ccc(CC(=O)NCc3ccccc3)cc2cc1OC
inactive: [1] 94 % of control | [2] 91 % of control | [3] 89 % of control | [4] 86 % of control | [5] 101 % of control | [6] 101 % of control

CS/C(N)=N/N
inactive: [7] 100 % of control | dose: 25.0 mg/kg/injection, schedule: Q01DX001 (ip), vehicle: saline 90 % of control | [8] 106 % of control | dose: 50.0 mg/kg/injection, schedule: Q01DX001 (ip), vehicle: saline 101 % of control

CCCCCCCCCCNC(=O)C[n+]1cccc(C(=O)Nc2ccccc2)c1
inactive: dose: 3.12 mg/kg/injection, schedule: Q01DX009 (ip), vehicle: saline with Tween-80 100 % of control | dose: 6.25 mg/kg/injection, schedule: Q01DX009 (ip), vehicle: saline with Tween-80 105 % of control | dose: 12.5 mg/kg/injection, schedule: Q01DX009 (ip), vehicle: saline with Tween-80 88 % of control | [7] 103 % of control | [8] 88 % of control

CC1CN1P(=O)(OCCCl)N1CC1C (configuration not stated)
inactive: dose: 20.0 mg/kg/injection, schedule: Q01DX Z (ip), vehicle: saline 97 % of control | dose: 40.0 mg/kg/injection, schedule: Q01DX Z (ip), vehicle: saline 100 % of control | dose: 80.0 mg/kg/injection, schedule: Q01DX Z (ip), vehicle: saline 108 % of control | dose: 160.0 mg/kg/injection, schedule: Q01DX Z (ip), vehicle: saline 117 % of control

CCOC(=O)C1OC12CCCCC2 (configuration not stated)
inactive: [9] 100 % of control | [2] 92 % of control | [10] 92 % of control | [4] 96 % of control | [11] 100 % of control | [6] 89 % of control

O=C(O)/C(=C\c1ccccc1)c1cccc2ccccc12
inactive: [9] 100 % of control | [10] 98 % of control

CN(C)c1nc2c(N)ncnc2n1C1OC(CO)C(O)C1O (configuration not stated)
inactive: dose: 6.25 mg/kg/injection, schedule: Q01DX009 (ip), vehicle: saline 100 % of control | dose: 12.5 mg/kg/injection, schedule: Q01DX005 (ip), vehicle: saline 95 % of control | dose: 12.5 mg/kg/injection, schedule: Q01DX009 (ip), vehicle: saline 96 % of control | dose: 25.0 mg/kg/injection, schedule: Q01DX005 (ip), vehicle: saline 101 % of control | dose: 25.0 mg/kg/injection, schedule: Q01DX009 (ip), vehicle: saline 110 % of control | dose: 50.0 mg/kg/injection, schedule: Q01DX005 (ip), vehicle: saline 108 % of control

CC1OC2COC(C)OC2C(C(O)COC(=O)c2ccc([N+](=O)[O-])cc2)O1 (configuration not stated)
inactive: [1] 98 % of control | [2] 110 % of control | [3] 98 % of control | [4] 104 % of control | [5] 103 % of control | [6] 101 % of control

Cc1ccc(CC2NC(=O)NC2=O)cc1 (configuration not stated)
inactive: dose: 25.0 mg/kg/injection, schedule: Q01DX009 (ip), vehicle: saline with Tween-80 102 % of control | dose: 50.0 mg/kg/injection, schedule: Q01DX009 (ip), vehicle: saline with Tween-80 96 % of control | dose: 100.0 mg/kg/injection, schedule: Q01DX009 (ip), vehicle: saline with Tween-80 104 % of control | dose: 200.0 mg/kg/injection, schedule: Q01DX009 (ip), vehicle: saline with Tween-80 96 % of control | dose: 400.0 mg/kg/injection, schedule: Q01DX009 (ip), vehicle: saline with Tween-80 94 % of control

COC(=O)/C=C(\C)Nc1ccc(-c2ccccc2)cc1
inactive: dose: 50.0 mg/kg/injection, schedule: Q01DX009 (ip), vehicle: saline 103 % of control | [12] 97 % of control | [1] 102 % of control | [2] 101 % of control | [13] 95 % of control | [3] 100 % of control | [4] 97 % of control | [14] 92 % of control | [6] 97 % of control

O=[N+]([O-])c1ccc(OCCOCCOc2ccc(S(=O)(=O)F)cc2)c(Cl)c1
inactive: dose: 100.0 mg/kg/injection, schedule: Q01DX001 (ip), vehicle: saline with Tween-80 89 % of control | dose: 200.0 mg/kg/injection, schedule: Q01DX001 (ip), vehicle: saline with Tween-80 97 % of control | dose: 400.0 mg/kg/injection, schedule: Q01DX001 (ip), vehicle: saline with Tween-80 103 % of control

COc1ccc(Cl)cc1/C=C/C=O
inactive: [12] 91 % of control | [13] 92 % of control | [14] 102 % of control

O=C(O)C(Sc1ccccc1)c1ccccc1 (configuration not stated)
inactive: dose: 100.0 mg/kg/injection, schedule: Q04DX002 (ip), vehicle: gum acacia 100 % of control | dose: 200.0 mg/kg/injection, schedule: Q04DX002 (ip), vehicle: gum acacia 100 % of control | dose: 400.0 mg/kg/injection, schedule: Q04DX002 (ip), vehicle: gum acacia 104 % of control

CC(=O)c1ccccc1C(C)c1ccc2cccc(F)c2c1 (configuration not stated)
inactive: dose: 75.0 mg/kg/injection, schedule: Q01DX001 (ip), vehicle: Klucel (hydroxypropylcellulose) (HPC) 96 % of control | dose: 150.0 mg/kg/injection, schedule: Q01DX001 (ip), vehicle: Klucel (hydroxypropylcellulose) (HPC) 100 % of control | dose: 300.0 mg/kg/injection, schedule: Q01DX001 (ip), vehicle: Klucel (hydroxypropylcellulose) (HPC) 102 % of control

COc1ccc(NC(=O)Nc2ccc(Cl)cc2OC)cc1
inactive: dose: 25.0 mg/kg/injection, schedule: Q04DX002 (ip), vehicle: saline with Tween-80 93 % of control | dose: 50.0 mg/kg/injection, schedule: Q04DX002 (ip), vehicle: saline with Tween-80 96 % of control | [15] 89 % of control

NC(=O)c1cc(Cl)ccn1
inactive: [15] 101 % of control | dose: 200.0 mg/kg/injection, schedule: Q04DX002 (ip), vehicle: saline with Tween-80 99 % of control

O=C1OC(c2ccc([N+](=O)[O-])cc2)=N/C1=C\c1ccc2c(c1)OCO2
inactive: [15] 92 % of control | dose: 400.0 mg/kg/injection, schedule: Q04DX002 (ip), vehicle: saline with Tween-80 87 % of control

C/C(=N/NC(N)=O)C1CC2CCC1C2 (configuration not stated)
inactive: [12] 98 % of control | dose: 100.0 mg/kg/injection, schedule: Q01DX009 (ip), vehicle: gum acacia 102 % of control | dose: 100.0 mg/kg/injection, schedule: Q04DX003 (ip), vehicle: gum acacia 93 % of control | [13] 101 % of control | dose: 200.0 mg/kg/injection, schedule: Q01DX009 (ip), vehicle: gum acacia 94 % of control | dose: 200.0 mg/kg/injection, schedule: Q04DX003 (ip), vehicle: gum acacia 95 % of control | dose: 400.0 mg/kg/injection, schedule: Q04DX003 (ip), vehicle: gum acacia 90 % of control

CCCSCC
inactive: dose: 100.0 mg/kg/injection, schedule: Q04DX003 (ip), vehicle: saline with Tween-80 93 % of control | dose: 200.0 mg/kg/injection, schedule: Q04DX003 (ip), vehicle: saline with Tween-80 91 % of control | dose: 400.0 mg/kg/injection, schedule: Q04DX003 (ip), vehicle: saline with Tween-80 101 % of control

O=C(/C(=N/Nc1ccccc1)c1ccccc1)c1ccccc1
inactive: dose: 25.0 mg/kg/injection, schedule: Q04DX003 (ip), vehicle: Klucel (hydroxypropylcellulose) (HPC) 104 % of control | dose: 50.0 mg/kg/injection, schedule: Q04DX003 (ip), vehicle: Klucel (hydroxypropylcellulose) (HPC) 95 % of control | [9] 108 % of control | dose: 100.0 mg/kg/injection, schedule: Q04DX003 (ip), vehicle: Klucel (hydroxypropylcellulose) (HPC) 100 % of control and 103 % of control | [10] 104 % of control | dose: 200.0 mg/kg/injection, schedule: Q04DX003 (ip), vehicle: Klucel (hydroxypropylcellulose) (HPC) 97 % of control | [11] 104 % of control | dose: 400.0 mg/kg/injection, schedule: Q04DX003 (ip), vehicle: Klucel (hydroxypropylcellulose) (HPC) 95 % of control

CCc1nc(NS(=O)(=O)c2ccc(N)cc2)nc(-c2ccccc2)c1-c1ccccc1O
inactive: [16] 87 % of control | [17] 91 % of control | [18] 95 % of control

CC1(CC(=O)O)CCCCC1CC(=O)O (configuration not stated)
inactive: [16] 110 % of control | [17] 103 % of control | [18] 97 % of control

O=C(CBr)c1ccc2c3c(cccc13)C=C2
inactive: dose: 75.0 mg/kg/injection, schedule: Q01DX001 (ip), vehicle: saline 98 % of control
